From US20210353593A1 (Chinook Therapeutics, Inc., priority 2019, published 2021)

Test system: hallmark gene sets in kidney tissue of g-ddY mice
Test: Gene Set Enrichment Analysis (GSEA) of hallmark gene sets, g-ddY mouse kidney RNA-seq
Format: in vivo

CCCCN(CCCC)C(=O)CN1C[C@H](c2ccc3c(c2)OCO3)[C@@H](C(=O)O)[C@@H]1c1ccc(OC)cc1 [Atrasentan, (2R,3R,4S)-4-(1,3-benzodioxol-5-yl)-1-[2-(dibutylamino)-2-oxoethyl]-2-(4-methoxyphenyl)pyrrolidine-3-carboxylic acid] was tested, and the “HALLMARK_INTERFERON_GAMMA_RESPONSE NES” value (20 mg/kg/day vs. control) was −2.88, the “HALLMARK_KRAS_SIGNALING_DN NES” value (20 mg/kg/day vs. control) was 1.32 and the “HALLMARK_KRAS_SIGNALING_UP NES” value (20 mg/kg/day vs. control) was −2.65. For the same molecule, the “HALLMARK_M ITOTIC_SPINDLE NES” value (20 mg/kg/day vs. control) was −1.79, the “HALLMARK_MTORC1_SIGNALING NES” value (20 mg/kg/day vs. control) was 1.23 and the “HALLMARK_MYC_TARGETS_V1 NES” value (20 mg/kg/day vs. control) was −0.81. For the same molecule, the “HALLMARK_MYC_TARGETS_V2 NES” value (20 mg/kg/day vs. control) was 0.76, the “HALLMARK_MYOGENESIS NES” value (20 mg/kg/day vs. control) was −1.60 and the “HALLMARK_NOTCH_SIGNALING NES” value (20 mg/kg/day vs. control) was 0.69. The “HALLMARK_OXIDATIVE_PHOSPHORYLATION NES” value (20 mg/kg/day vs. control) was 3.38, the “HALLMARK_P53_PATHWAY NES” value (20 mg/kg/day vs. control) was −1.3 and the “HALLMARK_PANCREAS_BETA_CELLS NES” value (20 mg/kg/day vs. control) was 0.98. For the same molecule, the “HALLMARK_PEROXISOME NES” value (20 mg/kg/day vs. control) was 1.88, the “HALLMARK_PI3K_AKT_MTOR SIGNALING NES” value (20 mg/kg/day vs. control) was −1.24 and the “HALLMARK_PROTEIN_SECRETION NES” value (20 mg/kg/day vs. control) was 1.08. The “HALLMARK_REACTIVE_OXYGEN_SPECIES_PATHWAY NES” value (20 mg/kg/day vs. control) was 1.61, the “HALLMARK_SPERMATOGENESIS NES” value (20 mg/kg/day vs. control) was 1.17 and the “HALLMARK_TGF_BETA_SIGNALING NES” value (20 mg/kg/day vs. control) was −1.96. The “HALLMARK_TNFA_SIGNALING_VIA_NFKB NES” value (20 mg/kg/day vs. control) was −3.06, the “HALLMARK_UNFOLDED_PROTEIN_RESPONSE NES” value (20 mg/kg/day vs. control) was −0.64 and the “HALLMARK_UV_RESPONSE_DN NES” value (20 mg/kg/day vs. control) was −2.36. The “HALLMARK_UV_RESPONSE_UP NES” value (20 mg/kg/day vs. control) was 1.15, the “HALLMARK_WNT_BETA_CATENIN_SIGNALING NES” value (20 mg/kg/day vs. control) was −1.57 and the “HALLMARK_XENOBIOTIC_METABOLISM NES” value (20 mg/kg/day vs. control) was 2.16. For the same molecule, the “cell proliferation associated signaling (mitotic spindle and G2M checkpoint)” value (30 mg/kg/day) was “reduced”, the inflammatory response signaling (30 mg/kg/day) was “reduced” and the “HALLMARK_ADIPOGENESIS NES” value (30 mg/kg/day vs. control) was 2.64. For the same molecule, the “HALLMARK_ALLOGRAFT_REJECTION NES” value (30 mg/kg/day vs. control) was −2.12, the “HALLMARK_ANDROGEN_RESPONSE NES” value (30 mg/kg/day vs. control) was 0.92 and the “HALLMARK_ANGIOGENESIS NES” value (30 mg/kg/day vs. control) was −1.86. For the same molecule, the “HALLMARK_APICAL_JUNCTION NES” value (30 mg/kg/day vs. control) was −2.00, the “HALLMARK_APICAL_SURFACE NES” value (30 mg/kg/day vs. control) was −1.65 and the “HALLMARK_APOPTOSIS NES” value (30 mg/kg/day vs. control) was −1.52. The “HALLMARK_BILE_ACID_METABOLISM NES” value (30 mg/kg/day vs. control) was 2.40, the “HALLMARK_CHOLESTEROL_HOMEOSTASIS NES” value (30 mg/kg/day vs. control) was 1.14 and the “HALLMARK_COAGULATION NES” value (30 mg/kg/day vs. control) was −1.56. For the same molecule, the “HALLMARK_COMPLEMENT NES” value (30 mg/kg/day vs. control) was −1.56, the “HALLMARK_DNA_REPAIR NES” value (30 mg/kg/day vs. control) was 1.52 and the “HALLMARK_E2F_TARGETS NES” value (30 mg/kg/day vs. control) was −1.46. For the same molecule, the “HALLMARK_EPITHELIAL_MESENCHYMAL_TRANSITION NES” value (30 mg/kg/day vs. control) was −2.60, the “HALLMARK_ESTROGEN_RESPONSE_EARLY NES” value (30 mg/kg/day vs. control) was −1.22 and the “HALLMARK_ESTROGEN_RESPONSE_LATE NES” value (30 mg/kg/day vs. control) was 1.16. For the same molecule, the “HALLMARK_FATTY_ACID_METABOLISM NES” value (30 mg/kg/day vs. control) was 2.90, the “HALLMARK_G2M_CHECKPOINT NES” value (30 mg/kg/day vs. control) was −1.92 and the “HALLMARK_GLYCOLYSIS NES” value (30 mg/kg/day vs. control) was 1.96. For the same molecule, the “HALLMARK_HEDGEHOG_SIGNALING NES” value (30 mg/kg/day vs. control) was −1.94, the “HALLMARK_HEME_METABOLISM NES” value (30 mg/kg/day vs. control) was 1.99 and the “HALLMARK_HYPOXIA NES” value (30 mg/kg/day vs. control) was −1.18. For the same molecule, the “HALLMARK_IL2_STAT5_SIGNALING NES” value (30 mg/kg/day vs. control) was −1.56, the “HALLMARK_IL6_JAK_STAT3_SIGNALING NES” value (30 mg/kg/day vs. control) was −2.33 and the “HALLMARK_INFLAMMATORY_RESPONSE NES” value (30 mg/kg/day vs. control) was −2.40. For the same molecule, the “HALLMARK_INTERFERON_ALPHA_RESPONSE NES” value (30 mg/kg/day vs. control) was −1.80, the “HALLMARK_INTERFERON_GAMMA_RESPONSE NES” value (30 mg/kg/day vs. control) was −2.26 and the “HALLMARK_KRAS_SIGNALING_DN NES” value (30 mg/kg/day vs. control) was −1.12. For the same molecule, the “HALLMARK_KRAS_SIGNALING_UP NES” value (30 mg/kg/day vs. control) was −2.31, the “HALLMARK_M ITOTIC_SPINDLE NES” value (30 mg/kg/day vs. control) was −2.02 and the “HALLMARK_MTORC1_SIGNALING NES” value (30 mg/kg/day vs. control) was 1.81. For the same molecule, the “HALLMARK_MYC_TARGETS_V1 NES” value (30 mg/kg/day vs. control) was 1.26, the “HALLMARK_MYC_TARGETS_V2 NES” value (30 mg/kg/day vs. control) was 0.92 and the “HALLMARK_MYOGENESIS NES” value (30 mg/kg/day vs. control) was −1.30. For the same molecule, the “HALLMARK_NOTCH_SIGNALING NES” value (30 mg/kg/day vs. control) was −1.15, the “HALLMARK_OXIDATIVE_PHOSPHORYLATION NES” value (30 mg/kg/day vs. control) was 3.69 and the “HALLMARK_P53_PATHWAY NES” value (30 mg/kg/day vs. control) was 1.10. For the same molecule, the “HALLMARK_PANCREAS_BETA_CELLS NES” value (30 mg/kg/day vs. control) was 1.07, the “HALLMARK_PEROXISOME NES” value (30 mg/kg/day vs. control) was 2.39 and the “HALLMARK_PI3K_AKT_MTOR SIGNALING NES” value (30 mg/kg/day vs. control) was 0.83. For the same molecule, the “HALLMARK_PROTEIN_SECRETION NES” value (30 mg/kg/day vs. control) was 1.73, the “HALLMARK_REACTIVE_OXYGEN_SPECIES_PATHWAY NES” value (30 mg/kg/day vs. control) was 1.98 and the “HALLMARK_SPERMATOGENESIS NES” value (30 mg/kg/day vs. control) was 1.21. The “HALLMARK_TGF_BETA_SIGNALING NES” value (30 mg/kg/day vs. control) was −1.55, the “HALLMARK_TNFA_SIGNALING_VIA_NFKB NES” value (30 mg/kg/day vs. control) was −2.63 and the “HALLMARK_UNFOLDED_PROTEIN_RESPONSE NES” value (30 mg/kg/day vs. control) was 0.78. For the same molecule, the “HALLMARK_UV_RESPONSE_DN NES” value (30 mg/kg/day vs. control) was −2.39, the “HALLMARK_UV_RESPONSE_UP NES” value (30 mg/kg/day vs. control) was 1.63 and the “HALLMARK_WNT_BETA_CATENIN_SIGNALING NES” value (30 mg/kg/day vs. control) was −1.63. For the same molecule, the “HALLMARK_XENOBIOTIC_METABOLISM NES” value (30 mg/kg/day vs. control) was 2.38.
